Results from BigSolDB 2.1.

C(=Cc1ccc(-c2nc3ccccc3o2)cc1)c1ccc(-c2nc3ccccc3o2)cc1
solubility (mole fraction)
Details	323.15 K	338.15 K	353.15 K	368.15 K	383.15 K
in DMF	3.02e-06	7.12e-06	1.04e-05	1.57e-05	2.63e-05
in NMP	3.18e-06	7.96e-06	1.37e-05	2.44e-05	3.99e-05
in chlorobenzene	8.89e-06	2.1e-05	3.65e-05	4.9e-05	5.59e-05
in water	1.3e-07	3.39e-07	5.56e-07	6.6e-07	–
